Data from patent publication US20060045953A1 (priority 2004, published 2006).

Tests used:
[1] = molecular target: T1, hT1R1/hT1R3 umami receptor (Homo sapiens, UniProt Q7RTX0+Q7RTX1); assay: In vitro hT1R1/hT1R3 umami taste receptor activation assay (FLIPR, dose response); type: cell-based; conditions: read-out: EC50 for activation of a hT1R1/hT1R3 umami receptor expressed in an HEK293 cell line
T1 construct: expressed in transfected cells; host or cells: HEK293 derivative stably expressing Gα15, clone I-17, expression induced with mifepristone
T1 sequence (Q7RTX1 21-841): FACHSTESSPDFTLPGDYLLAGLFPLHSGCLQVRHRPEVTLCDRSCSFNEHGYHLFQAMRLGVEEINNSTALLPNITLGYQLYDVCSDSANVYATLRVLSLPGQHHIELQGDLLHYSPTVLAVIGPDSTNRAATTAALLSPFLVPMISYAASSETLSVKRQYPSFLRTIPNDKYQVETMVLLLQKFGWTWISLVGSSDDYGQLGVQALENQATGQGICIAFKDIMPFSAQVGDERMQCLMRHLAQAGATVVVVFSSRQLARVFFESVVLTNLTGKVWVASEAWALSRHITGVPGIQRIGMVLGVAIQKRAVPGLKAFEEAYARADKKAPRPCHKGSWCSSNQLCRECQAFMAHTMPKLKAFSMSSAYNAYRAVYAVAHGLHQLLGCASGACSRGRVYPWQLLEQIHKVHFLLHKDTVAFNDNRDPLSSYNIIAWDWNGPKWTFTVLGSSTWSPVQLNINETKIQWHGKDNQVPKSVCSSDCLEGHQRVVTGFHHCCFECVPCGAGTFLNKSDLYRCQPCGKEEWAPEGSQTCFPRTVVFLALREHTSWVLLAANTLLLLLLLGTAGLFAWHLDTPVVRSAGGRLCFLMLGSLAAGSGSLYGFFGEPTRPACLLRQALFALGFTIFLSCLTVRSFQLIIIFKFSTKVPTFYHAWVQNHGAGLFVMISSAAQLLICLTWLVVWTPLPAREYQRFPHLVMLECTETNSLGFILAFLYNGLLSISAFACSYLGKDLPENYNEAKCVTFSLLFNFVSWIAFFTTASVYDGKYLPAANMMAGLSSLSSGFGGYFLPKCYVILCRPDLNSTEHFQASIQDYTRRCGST
T1 sequence (Q7RTX0 21-852): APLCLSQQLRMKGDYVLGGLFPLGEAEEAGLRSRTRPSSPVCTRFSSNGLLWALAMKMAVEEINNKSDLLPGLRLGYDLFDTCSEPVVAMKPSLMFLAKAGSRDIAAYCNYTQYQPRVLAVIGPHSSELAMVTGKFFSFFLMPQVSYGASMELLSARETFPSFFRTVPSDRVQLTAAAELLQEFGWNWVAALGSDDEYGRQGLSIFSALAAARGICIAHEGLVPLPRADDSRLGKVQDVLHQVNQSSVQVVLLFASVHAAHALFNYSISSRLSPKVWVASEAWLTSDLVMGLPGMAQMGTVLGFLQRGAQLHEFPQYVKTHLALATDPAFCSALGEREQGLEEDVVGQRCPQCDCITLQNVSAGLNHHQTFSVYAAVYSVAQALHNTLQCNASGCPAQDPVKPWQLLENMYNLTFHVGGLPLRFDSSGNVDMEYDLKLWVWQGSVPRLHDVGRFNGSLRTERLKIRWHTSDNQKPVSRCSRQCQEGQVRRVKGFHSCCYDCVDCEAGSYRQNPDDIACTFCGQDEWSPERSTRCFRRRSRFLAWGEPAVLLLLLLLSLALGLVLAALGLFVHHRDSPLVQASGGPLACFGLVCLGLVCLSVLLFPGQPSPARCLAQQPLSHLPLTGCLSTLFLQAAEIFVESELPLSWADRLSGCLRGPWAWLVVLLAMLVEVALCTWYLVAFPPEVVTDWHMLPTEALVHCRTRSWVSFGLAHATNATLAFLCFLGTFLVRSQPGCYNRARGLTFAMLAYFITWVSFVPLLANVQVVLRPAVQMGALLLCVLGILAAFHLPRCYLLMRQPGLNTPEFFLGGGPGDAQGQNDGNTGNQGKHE

[2] = test system: human panelists; assay: Umami/savory flavor experiments using human panelists (trained panel, difference from reference); type: in vivo; conditions: savory taste; for Taste Data: concentration of cpd that with 12 mM MSG is as strong as 12 mM MSG + 100 μM IMP: aqueous solution with 12 mM MSG; for Taste Data: concentration of cpd (alone) as strong as 12 mM MSG: without MSG
Protocol: General Panelist Selection: Basic screening of sensory taste testers: Potential panelists were tested for their abilities to rank and rate intensities of solutions representing the five basic tastes. Panelists ranked and rated intensity of five different concentrations of each of the five following compounds: sucrose (sweet), sodium chloride (salty), citric acid (sour), caffeine (bitter), and monosodium glutamate (savory). In order to be selected for participation in testing, panelists needed to correctly rank and rate samples for intensity, with a reasonable number of errors. […]
Trained Panelist Selection: A trained expert panel was used to further evaluate compounds that had been tested with the preliminary taste test.
Panelists for the trained panel were selected from the larger group of qualifying taste panelists. Panelists were further trained on savory taste by ranking and rating experiments using MSG and IMP combinations. Panelists completed a series of ranking, rating, and difference from reference tests with savory solutions. In ranking and rating experiments, panelists evaluated easy MSG concentrations (0, 6, 18, 36 mM) and more difficult MSG concentrations (3, 6, 12, 18 mM MSG) in water.
Compound testing with Trained Panel: Compounds tested by the trained panel were evaluated in difference from reference experiments. […] Test samples were solutions with varying amounts of MSG, IMP, and the compound. Typically, each session compares the reference sample to numerous test samples. […] Compounds were tested against the reference in samples with and without 12 mM MSG. All samples were presented in 10 ml volumes at room temperature. Two sessions were completed for each compound tested to evaluate panel reproducibility.

[3] = molecular target: T2, hT1R2/hT1R3 sweet receptor (Homo sapiens, UniProt Q7RTX0+Q8TE23); assay: In vitro hT1R2/hT1R3 sweet taste receptor activation assay (FLIPR, dose response); type: cell-based; conditions: read-out: EC50 for activation of a hT1R2/hT1R3 sweet receptor expressed in an HEK293 cell line
T2 construct: expressed in transfected cells; host or cells: HEK293 derivative stably expressing Gα15, clone S-9
T2 sequence (Q8TE23 20-839): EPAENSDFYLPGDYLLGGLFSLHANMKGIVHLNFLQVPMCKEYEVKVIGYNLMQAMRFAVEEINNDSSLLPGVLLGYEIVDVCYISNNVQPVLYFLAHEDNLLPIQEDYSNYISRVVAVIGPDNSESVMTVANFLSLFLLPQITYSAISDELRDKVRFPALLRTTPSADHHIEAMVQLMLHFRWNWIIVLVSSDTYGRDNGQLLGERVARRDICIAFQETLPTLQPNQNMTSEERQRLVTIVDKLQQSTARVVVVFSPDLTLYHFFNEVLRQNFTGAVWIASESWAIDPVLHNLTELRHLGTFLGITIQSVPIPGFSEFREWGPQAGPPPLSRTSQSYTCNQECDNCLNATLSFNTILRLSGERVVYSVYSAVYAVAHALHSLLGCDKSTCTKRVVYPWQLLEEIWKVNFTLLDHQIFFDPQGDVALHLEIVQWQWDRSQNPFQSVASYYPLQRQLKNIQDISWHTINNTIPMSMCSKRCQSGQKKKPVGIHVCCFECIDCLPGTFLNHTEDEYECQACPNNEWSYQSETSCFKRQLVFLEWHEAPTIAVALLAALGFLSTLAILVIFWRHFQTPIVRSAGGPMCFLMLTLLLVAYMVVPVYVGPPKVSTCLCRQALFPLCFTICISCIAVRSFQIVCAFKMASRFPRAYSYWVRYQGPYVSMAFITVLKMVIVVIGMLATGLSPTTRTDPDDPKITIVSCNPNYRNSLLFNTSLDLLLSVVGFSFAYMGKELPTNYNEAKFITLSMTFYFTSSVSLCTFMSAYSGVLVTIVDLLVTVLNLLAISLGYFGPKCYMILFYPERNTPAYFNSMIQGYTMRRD
T2 sequence (Q7RTX0 21-852): T1 sequence (Q7RTX0 21-852)
Outline: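 S-9 cells expressing hT1R2/hT1R3, loaded with 4 µM Fluo-3AM 1 h at room temperature. Calcium response on FLIPR at room temperature in D-PBS, with 10 concentrations from 60 nM to 30 µM in duplicate.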

SMILES | EC50 [1] [nM] | melting point [°C] | EC50 [3] [nM] | Taste Data: concentration of cpd that with 12 mM MSG is as strong as 12 mM MSG + 100 μM IMP [2] | Taste Data: concentration of cpd (alone) as strong as 12 mM MSG [2]
CCCC(CCC)NC(=O)c1ccc2c(c1)OCO2 [Example 1, N-(heptan-4-yl)benzo[d][1,3]dioxole-5-carboxamide] | 200 | – | – | 12 mM MSG + 3 μM cpd as strong as | –
COC(=O)[C@@H](CC(C)C)NC(=O)c1ccc2c(c1)OCO2 [Example 6, (R)-methyl 2-(benzo[d][1,3]dioxole-6-carboxamido)-4-methylpentanoate] | 340 | – | – | 12 mM MSG + 10 μM cpd as strong as | –
COC[C@@H](CC(C)C)NC(=O)c1ccc(C)c(C)c1 [Example 71, (R)-N-(1-methoxy-4-methylpentan-2-yl)-3,4-dimethylbenzamide] | 200 | – | – | 12 mM MSG + 3 μM cpd as strong as | –
COC(=O)[C@@H](CC(C)C)NC(=O)c1cc(C)c(C)o1 [Example 98, (R)-methyl 2-(2,3-dimethylfuran-5-carboxamido)-4-methylpentanoate] | 590 | – | – | 12 mM MSG + 10 μM cpd as strong as | –
COC[C@@H](CC(C)C)NC(=O)c1ccc(OC)c(C)c1 [Example 104, 4-Methoxy-N-(1-methoxymethyl-3-methyl-butyl)-3-methyl-benzamide] | 240 | – | – | 12 mM MSG + 3 μM cpd as strong as | –
COc1cc(C)ccc1CNC(=O)C(=O)NCCc1ccc(C)cn1 [Example 157, N^1-(2-methoxy-4-methylbenzyl)-N^2-(2-(5-methylpyridin-2-yl)ethyl)oxalamide] | 30 | 133.5 to 134 | – | 12 mM MSG + 0.3 μM cpd as strong | 0.3 μM cpd as strong as 12 mM MSG
Cc1c(F)c(F)c(C(=O)NC2CCCCC2C)c(F)c1F (centres unmarked) [Example 162, 2,3,5,6-tetrafluoro-4-methyl-N-(2-methylcyclohexyl)benzamide] | – | 202 to 204 | 390 | – | –
Cc1c(F)c(F)c(C(=O)NC2CCCCCC2)c(F)c1F [Example 164, N-cycloheptyl-2,3,5,6-tetrafluoro-4-methylbenzamide] | – | 164 to 165 | 1850 | – | –
Cc1c(F)c(F)c(C(=O)NC(C(C)C)C(C)C)c(F)c1F [Example 165, N-(2,4-dimethylpentan-3-yl)-2,3,5,6-tetrafluoro-4-methylbenzamide] | – | 184 to 187 | 810 | – | –
O=C(Nc1ccc2c(c1)OCO2)N1Cc2ccccc2C1 [Example 174, N-(3,4-methylenedioxyphenyl)isoindoline-2-carboxamide] | – | 165 to 166 | 1050 | – | –

Now from value to molecule, other results behind:

EC50 [1] [nM] | melting point [°C] | EC50 [3] [nM] | SMILES | Taste Data: concentration of cpd that with 12 mM MSG is as strong as 12 mM MSG + 100 μM IMP [2] | Taste Data: concentration of cpd (alone) as strong as 12 mM MSG [2]
80 | – | – | COc1ccc(C(=O)N[C@H]2CCc3ccccc32)cc1C [Example 121-1, (S)-N-(2,3-Dihydro-1H-inden-1-yl)-4-methoxy-3-methylbenzamide] | 12 mM MSG + 1 μM cpd as strong as | 1 μM cpd as strong as 12 mM MSG
90 | – | – | COc1ccc(CNC(=O)C(=O)NCCc2ccccn2)c(OC)c1 [Example 123, N-(2,4-Dimethoxy-benzyl)-N′-(2-pyridin-2-yl-ethyl)-oxalamide] | 12 mM MSG + 1 μM cpd as strong as | 1 μM cpd as strong as 12 mM MSG
40 | 128 to 131 | – | COc1cc(C)ccc1CNC(=O)C(=O)NCCc1ccccn1 [Example 132, N-(2-methoxy-4-methylbenzyl)-N′-(2-(pyridin-2-yl)ethyl)oxalamide] | 12 mM MSG + 1 μM cpd as strong as | 1 μM cpd as strong as 12 mM MSG
– | 57 to 58 | 760 | Cc1cc(C)c2c(c1)C(NC(=O)c1conc1C)CCC2 (centres unmarked) [Example 166, N-(5,7-dimethyl-1,2,3,4-tetrahydronaphthalen-1-yl)-3-methylisoxazole-4-carboxamide] | – | –
– | 175 to 176 | 210 | COc1cccc2c1CCCC2NC(=O)c1cccc(Cl)c1O (centres unmarked) [Example 167, 3-chloro-2-hydroxy-N-(5-methoxy-1,2,3,4-tetrahydronaphthalen-1-yl) benzamide] | – | –
– | 111 to 113 | 850 | COc1ccc2c(c1)CCC[C@H]2NC(=O)c1cccc(Cl)c1O [Example 183, (R)-3-Chloro-2-hydroxy-N-(6-methoxy-1,2,3,4-tetrahydronaphthalen-1-yl)benzamide] | – | –
